Experimental data taken from PubChem BioAssay AID248 (DTP/NCI, 2004).
Values joined by “and” are separate entries in the source; they are usually repeats but may differ in a detail not shown here. Equal entries are not always repeated. Toxic doses and inconclusive results are not listed. No stated cut-off is given here; in the data, active means T/C of 150% or more; inactive means T/C below 125%.

Test system: L1210 leukemia ip in BDF1 mice, survival T/C
Experiment: NCI In Vivo Anticancer Drug Screen. Data for tumor model L1210 Leukemia (intraperitoneal) in B6D2F1 (BDF1) mice
Conditions: endpoint: mean survival time, higher = longer survival
Summary of the method: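 In this screen, tumor-bearing mice given compound are compared to those given vehicle, and their survival values are reported as a treated-to-control quotient.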

[1] = dose: 25.0 mg/kg/injection, schedule: Q04DX002 (ip), vehicle: Klucel (hydroxypropylcellulose) (HPC)
[2] = dose: 50.0 mg/kg/injection, schedule: Q04DX002 (ip), vehicle: Klucel (hydroxypropylcellulose) (HPC)
[3] = dose: 100.0 mg/kg/injection, schedule: Q04DX002 (ip), vehicle: Klucel (hydroxypropylcellulose) (HPC)
[4] = dose: 100.0 mg/kg/injection, schedule: Q04DX003 (ip), vehicle: Klucel (hydroxypropylcellulose) (HPC)
[5] = dose: 200.0 mg/kg/injection, schedule: Q04DX003 (ip), vehicle: Klucel (hydroxypropylcellulose) (HPC)
[6] = dose: 400.0 mg/kg/injection, schedule: Q04DX003 (ip), vehicle: Klucel (hydroxypropylcellulose) (HPC)
[7] = dose: 100.0 mg/kg/injection, schedule: Q01DX009 (ip), vehicle: Klucel (hydroxypropylcellulose) (HPC)
[8] = dose: 200.0 mg/kg/injection, schedule: Q01DX009 (ip), vehicle: Klucel (hydroxypropylcellulose) (HPC)
[9] = dose: 400.0 mg/kg/injection, schedule: Q01DX009 (ip), vehicle: Klucel (hydroxypropylcellulose) (HPC)
[10] = dose: 100.0 mg/kg/injection, schedule: Q01DX001 (ip), vehicle: saline
[11] = dose: 200.0 mg/kg/injection, schedule: Q01DX001 (ip), vehicle: saline
[12] = dose: 400.0 mg/kg/injection, schedule: Q01DX001 (ip), vehicle: saline
[13] = dose: 25.0 mg/kg/injection, schedule: Q01DX009 (ip), vehicle: Klucel (hydroxypropylcellulose) (HPC)
[14] = dose: 50.0 mg/kg/injection, schedule: Q01DX009 (ip), vehicle: Klucel (hydroxypropylcellulose) (HPC)

Measured: T/C

CCOCCOCCOC(C)Oc1ccccc1OC (centres undefined)
inactive: dose: 100.0 mg/kg/injection, schedule: Q04DX002 (ip), vehicle: saline 111 % of control | dose: 200.0 mg/kg/injection, schedule: Q04DX002 (ip), vehicle: saline 96 % of control | dose: 400.0 mg/kg/injection, schedule: Q04DX002 (ip), vehicle: saline 114 % of control

CC1(C)Cc2cccc(Br)c2O1
inactive: dose: 100.0 mg/kg/injection, schedule: Q01DX001 (ip), vehicle: other 98 % of control | dose: 200.0 mg/kg/injection, schedule: Q01DX001 (ip), vehicle: other 103 % of control | dose: 400.0 mg/kg/injection, schedule: Q01DX001 (ip), vehicle: other 97 % of control

CN(CCCl)CC1C(c2ccccc2)C1c1ccccc1 (centres undefined)
inactive: [1] 103 % of control | [2] 111 % of control | [3] 107 % of control and 111 % of control

COC(=O)C(C)(OC)OC
inactive: dose: 100.0 mg/kg/injection, schedule: Q01DX009 (ip), vehicle: saline 104 % of control | [4] 96 % of control | dose: 200.0 mg/kg/injection, schedule: Q01DX009 (ip), vehicle: saline 112 % of control | [5] 100 % of control | dose: 400.0 mg/kg/injection, schedule: Q01DX009 (ip), vehicle: saline 105 % of control | [6] 96 % of control

CN(C)c1ccc(/C=C2\SC(=S)N(c3ccccc3)C2=O)cc1
inactive: dose: 50.0 mg/kg/injection, schedule: Q01DX009 (ip), vehicle: saline with Tween-80 96 % of control | dose: 100.0 mg/kg/injection, schedule: Q01DX009 (ip), vehicle: saline with Tween-80 103 % of control | dose: 200.0 mg/kg/injection, schedule: Q01DX009 (ip), vehicle: saline with Tween-80 100 % of control

CCCCC(CC)COC(=O)/C=C/C(=O)OCC(CC)CCCC (centres undefined)
inactive: [7] 96 % of control | [4] 101 % of control | [8] 107 % of control | [5] 95 % of control | [9] 107 % of control | [6] 93 % of control

Cc1ccc(CN=C=S)cc1
inactive: dose: 6.25 mg/kg/injection, schedule: Q01DX009 (ip), vehicle: saline with Tween-80 103 % of control | dose: 12.5 mg/kg/injection, schedule: Q01DX009 (ip), vehicle: saline with Tween-80 98 % of control | dose: 25.0 mg/kg/injection, schedule: Q01DX009 (ip), vehicle: saline with Tween-80 97 % of control

CC(C)(CO)NCC1CCCC(CNC(C)(C)CO)C1 (centres undefined)
inactive: dose: 50.0 mg/kg/injection, schedule: Q01DX001 (ip), vehicle: carboxymethylcellulose (CMC) 92 % of control | dose: 100.0 mg/kg/injection, schedule: Q01DX001 (ip), vehicle: carboxymethylcellulose (CMC) 101 % of control

c1cncc(-c2ncnc3c2Cc2ccccc2-3)c1
inactive: [4] 97 % of control | [5] 111 % of control

CC(O)C(Cc1ccccc1)NC(=O)C(=O)NC(Cc1ccccc1)C(C)O (centres undefined)
inactive: [4] 95 % of control | [5] 90 % of control | [6] 92 % of control

CC(=O)OC1C=CCC2C(=O)C3=C(C(=O)c4ccccc4C3=O)C(=O)C12 (centres undefined)
inactive: dose: 0.25 mg/kg/injection, schedule: Q04DX003 (ip), vehicle: saline with Tween-80 93 % of control | dose: 0.5 mg/kg/injection, schedule: Q04DX003 (ip), vehicle: saline with Tween-80 93 % of control | dose: 1.0 mg/kg/injection, schedule: Q04DX003 (ip), vehicle: saline with Tween-80 89 % of control | dose: 2.0 mg/kg/injection, schedule: Q04DX003 (ip), vehicle: saline with Tween-80 97 % of control | dose: 4.0 mg/kg/injection, schedule: Q04DX003 (ip), vehicle: saline with Tween-80 107 % of control | dose: 6.0 mg/kg/injection, schedule: Q04DX003 (ip), vehicle: saline with Tween-80 103 % of control | dose: 8.0 mg/kg/injection, schedule: Q04DX003 (ip), vehicle: saline with Tween-80 98 % of control | dose: 12.0 mg/kg/injection, schedule: Q04DX003 (ip), vehicle: saline with Tween-80 97 % of control | dose: 16.0 mg/kg/injection, schedule: Q04DX003 (ip), vehicle: saline with Tween-80 98 % of control | dose: 24.0 mg/kg/injection, schedule: Q04DX003 (ip), vehicle: saline with Tween-80 97 % of control | dose: 32.0 mg/kg/injection, schedule: Q04DX003 (ip), vehicle: saline with Tween-80 104 % of control | dose: 48.0 mg/kg/injection, schedule: Q04DX003 (ip), vehicle: saline with Tween-80 97 % of control | dose: 64.0 mg/kg/injection, schedule: Q04DX003 (ip), vehicle: saline with Tween-80 100 % of control | dose: 128.0 mg/kg/injection, schedule: Q04DX003 (ip), vehicle: saline with Tween-80 100 % of control

Clc1ccccc1C(c1cccc2ccccc12)n1ccnc1 (centres undefined)
inactive: [1] 92 % of control | [2] 100 % of control | [3] 100 % of control | [8] 93 % of control | [9] 86 % of control

Nc1c(Br)cc(O)c2c1C(=O)c1ccccc1C2=O
inactive: [7] 88 % of control | [4] 100 % of control | [8] 90 % of control | [5] 100 % of control | [9] 90 % of control | [6] 96 % of control

CN(C=O)C(=S)[S][Sb]([S]C(=S)N(C)C=O)[S]c1nc2ccc(N=Nc3ccc(NS(=O)(=O)c4ccc(NC(=O)C(Cl)Cl)cc4)cc3)cc2s1
inactive: dose: 100.0 mg/kg/injection, schedule: Q01DX001 (ip), vehicle: steriod suspending solution 101 % of control

O/N=C1/CC2CCC(C2)C1(O)c1ccccc1 (centres undefined)
inactive: [10] 103 % of control | [11] 113 % of control | [12] 103 % of control

CC(=O)c1c(O)c(C)c(O)c2c1OC1=CC(=O)C(C(C)=O)C(=O)C12C (centres undefined)
inactive: dose: 5.0 mg/kg/injection, schedule: Q01DX009 (ip), vehicle: gum acacia 103 % of control | dose: 10.0 mg/kg/injection, schedule: Q01DX009 (ip), vehicle: gum acacia 101 % of control | dose: 20.0 mg/kg/injection, schedule: Q01DX009 (ip), vehicle: gum acacia 103 % of control | dose: 40.0 mg/kg/injection, schedule: Q01DX009 (ip), vehicle: gum acacia 94 % of control | dose: 80.0 mg/kg/injection, schedule: Q01DX009 (ip), vehicle: gum acacia 86 % of control

COc1ccc(OC)c2c(C)cc(Cl)nc12
inactive: [10] 104 % of control | [11] 98 % of control | [12] 110 % of control

CSC(=S)NNC(=O)c1ccc(C)cc1
inactive: dose: 20.0 mg/kg/injection, schedule: Q04DX003 (ip), vehicle: saline 96 % of control | dose: 40.0 mg/kg/injection, schedule: Q04DX003 (ip), vehicle: saline 98 % of control | dose: 75.0 mg/kg/injection, schedule: Q01DX001 (ip), vehicle: saline 98 % of control | dose: 75.0 mg/kg/injection, schedule: Q04DX003 (ip), vehicle: saline 105 % of control

C=C(Br)CN(CCCC)C(C)=O
inactive: [7] 100 % of control | [4] 103 % of control | [8] 108 % of control | [5] 100 % of control and 92 % of control

Cc1cc(C)c(CS)c(C)c1
inactive: [1] 98 % of control | [2] 95 % of control | [3] 98 % of control | dose: 200.0 mg/kg/injection, schedule: Q04DX002 (ip), vehicle: Klucel (hydroxypropylcellulose) (HPC) 95 % of control | dose: 400.0 mg/kg/injection, schedule: Q04DX002 (ip), vehicle: Klucel (hydroxypropylcellulose) (HPC) 100 % of control

CCCCOC(=O)c1ccc(NC(=O)Nc2cc([N+](=O)[O-])ccc2Cl)cc1
inactive: [13] 113 % of control | [14] 100 % of control | [7] 90 % of control

CCCCNC(=O)Nc1ccc(C)c(Cl)c1
inactive: [7] 96 % of control | [4] 94 % of control | [8] 94 % of control | [5] 94 % of control | [9] 89 % of control | [6] 100 % of control

O=C(NNc1ccccc1)OCCCl
inactive: dose: 12.5 mg/kg/injection, schedule: Q01DX009 (ip), vehicle: Klucel (hydroxypropylcellulose) (HPC) 95 % of control | [13] 101 % of control | [14] 107 % of control

CCCCSCCSC(=N)N
inactive: dose: 25.0 mg/kg/injection, schedule: Q04DX002 (ip), vehicle: saline with Tween-80 100 % of control | dose: 50.0 mg/kg/injection, schedule: Q04DX002 (ip), vehicle: saline with Tween-80 103 % of control | dose: 100.0 mg/kg/injection, schedule: Q04DX002 (ip), vehicle: saline with Tween-80 103 % of control
